These results are taken from EPA's ToxValDB 9.5 (doi:10.2903/j.efsa.2015.3943).

Some results are limits rather than exact numbers.

For data set [1], the system named is Anas platyrhynchos.
The test system of data set [2] is Mus musculus.
For data set [3], the system named is Colinus virginianus.
In data set [4] the test system is Rattus norvegicus. As to conditions: oral.
The test system of data set [5] is Canidae. As to conditions: subchronic; duration: 90 days; oral; Dog Other.
Data set [6] concerns Oryctolagus sp. As to conditions: developmental; development.

A word on the NOAEL: it is the highest dose or exposure tested at which no adverse effect was seen. Consider `CCCCOC(=O)[C@@H](C)Oc1ccc(Oc2ccc(C#N)cc2F)cc1` [Cyhalofop-butyl], for which the LD50 was above 2250 mg/kg-day in data set [1] (acute, oral, unspecified, mortality); above 2250 mg/kg-day in data set [3] (acute, oral, mortality); above 5000 mg/kg-day in data set [4] (acute, mortality). The NOEC was 80 mg/kg-day in data set [1] (reproductive, reproduction) and 80 mg/kg-day in data set [3] (reproduction developmental, reproduction). The LC50 in data set [1] (short-term, oral, feed, mortality) was above 5620 mg/kg; in data set [3] (acute, oral, diet, mortality), above 5620 mg/kg. Besides, the NOAEL worked out at 0.8 mg/kg-day in data set [2] (chronic, duration: 78 weeks); 3 mg/kg-day in data set [2] (subchronic, duration: 90 days, oral); 3 mg/kg-day in data set [4] (subchronic, duration: 90 days); 3 mg/kg-day in data set [5]; 40 mg/kg-day in data set [6].
